In ChEMBL document CHEMBL1154631 (Bioorg Med Chem Lett, 2009):

Experiments:
Mu-type opioid receptor = Mu-type opioid receptor (Homo sapiens, UniProt P35372)
Adenosine receptor A1 = target: T1, Adenosine receptor A1 (Homo sapiens, UniProt P30542); assay: Binding affinity to adenosine receptor A1
T1 sequence (P30542 whole entry): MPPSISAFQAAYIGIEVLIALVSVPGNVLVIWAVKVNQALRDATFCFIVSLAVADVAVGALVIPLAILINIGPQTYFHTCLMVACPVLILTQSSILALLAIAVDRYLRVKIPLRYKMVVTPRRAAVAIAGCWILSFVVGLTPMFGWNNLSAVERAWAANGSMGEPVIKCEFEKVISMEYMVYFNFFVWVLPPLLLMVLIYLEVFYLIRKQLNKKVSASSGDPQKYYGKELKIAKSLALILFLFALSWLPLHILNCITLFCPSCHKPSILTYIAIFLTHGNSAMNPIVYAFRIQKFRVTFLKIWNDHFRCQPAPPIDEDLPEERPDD

Chain of Mu-type opioid receptor (P35372 whole entry): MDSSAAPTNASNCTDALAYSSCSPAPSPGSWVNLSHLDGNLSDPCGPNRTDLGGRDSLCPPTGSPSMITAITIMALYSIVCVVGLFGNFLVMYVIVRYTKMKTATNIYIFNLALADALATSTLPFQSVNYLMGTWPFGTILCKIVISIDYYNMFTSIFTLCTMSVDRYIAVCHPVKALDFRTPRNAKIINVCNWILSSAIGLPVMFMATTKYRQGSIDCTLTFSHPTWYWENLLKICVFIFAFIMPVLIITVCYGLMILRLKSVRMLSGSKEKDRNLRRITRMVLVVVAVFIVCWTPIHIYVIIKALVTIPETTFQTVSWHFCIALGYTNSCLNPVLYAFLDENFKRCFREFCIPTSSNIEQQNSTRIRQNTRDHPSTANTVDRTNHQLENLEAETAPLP

`CCCn1c(=O)c2[nH]c(C3CCCC3)nc2n(CCC)c1=O` [1,3-DIPROPYL-8-CYCLOPENTYLXANTHINE [DPCPX]] showed a Ki (Mu-type opioid receptor) greater than 100 µM.
In the case of `C[C@@H](NC(=O)[C@@H](N)Cc1ccc(O)cc1)C(=O)NCC(=O)N(C)[C@@H](Cc1ccccc1)C(=O)NCCO` [DAMGO], the Ki (Adenosine receptor A1) is reported as greater than 100 µM.
`C=CCN1CC[C@]23c4c5ccc(O)c4O[C@H]2C(=O)CC[C@@]3(O)[C@H]1C5` [NALOXONE] gave a Ki (Adenosine receptor A1) greater than 50 µM.
